Laboratory results: patent publication US20050075375A1 (priority 2003, published 2005)

tested on: monocistronic NK5.1 HCV replicon in Huh7 cells; test: HCV replicon assay, monocistronic replicon cell line; format: cell-based, hepatitis C virus; settings: Hepatitis C virus, Huh-7, 72 h; table T3 (compounds 471-640); monocistronic replicon in Huh7 cells, 3 days incubation, HCV RNA/GAPDH RNA by TaqMan RT-PCR; read-out: Mono EC50 Median
Method in brief: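 Huh7 cells carrying the monocistronic NK5.1 replicon, seeded 24 h before dosing, were exposed to six-point half-log compound series (0.6% DMSO) for 3 days at 37 °C. Replicon RNA was quantified by TaqMan RT-PCR, normalised to GAPDH and compared with DMSO controls to derive EC50.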

Compound | EC50 [µM]
Oc1ccc(Br)cc1-c1ncn(-c2ccccn2)n1 [Compound 631, 4-Bromo-2-(1-pyridin-2-yl-1H-[1,2,4]triazol-3-yl)-phenol] | 1.4
COc1ccc(O)c(-c2nc(-c3ncccc3C(F)(F)F)nn2C)c1 [Compound 632, 4-Methoxy-2-[2-methyl-5-(3-trifluoromethyl-pyridin-2-yl)-2H-[1,2,4]triazol-3-yl]-phenol] | 31
Cn1nc(-c2ncccc2C(F)(F)F)nc1-c1cc(Br)ccc1O [Compound 633, 4-Bromo-2-[2-methyl-5-(3-trifluoromethyl-pyridin-2-yl)-2H-[1,2,4]triazol-3-yl]phenol] | 3.6
Oc1ccc(Br)cc1-c1ncn(-c2ncccc2C(F)(F)F)n1 [Compound 634, 4-Bromo-2-[1-(3-trifluoromethyl-pyridin-2-yl)-1H-[1,2,4]triazol-3-yl]-phenol] | 3.8
Cc1cccnc1-n1cnc(-c2cc(Br)ccc2O)n1 [Compound 635, 4-Bromo-2-[1-(3-methyl-pyridin-2-yl)-1H-[1,2,4]triazol-3-yl]-phenol] | 6.2
COc1ccc(O)c(-c2ncn(-c3ccccn3)n2)c1 [Compound 636, 4-Methoxy-2-(1-pyridin-2-yl-1H-[1,2,4]triazol-3-yl)-phenol] | 15
COc1ccc(O)c(-c2ncn(-c3ncccc3C)n2)c1 [Compound 637, 4-Methoxy-2-[1-(3-methyl-pyridin-2-yl)-1H-[1,2,4]triazol-3-yl]-phenol] | 12
COc1ccc(O)c(-c2ncn(-c3ncccc3C(F)(F)F)n2)c1 [Compound 638, 4-Methoxy-2-[1-(3-trifluoromethyl-pyridin-2-yl)-1H-[1,2,4]triazol-3-yl]-phenol] | 11
c1ccc(-c2ncn(-c3ccccn3)n2)nc1 [Compound 639] | > 32
Cn1nc(-c2ncccc2C(F)(F)F)nc1-c1cc([N+](=O)[O-])ccc1O [Compound 640, 4-Nitro-2-[2-methyl-5-(3-trifluoromethyl-pyridin-2-yl)-2H-[1,2,4]triazol-3-yl]-phenol] | > 32
